The conditions of data set [1]: cited from earlier work.
Data set [2] can be described thus: pH dependence of dissolution/precipitation of 1% meloxicam. The data set is classed as physicochemical. Here is the method:
NaOH solution (1 M) was added to the mixture to provide a pH of 10. […] Each solution was then titrated with HCl (aq). […] Similarly, for the 85:15 water:ethanol solvent system, a precipitate formed when the initial apparent pH of 12 was reduced to 7.7 (by addition of HCl).

Data set [3] can be described thus: Stability of meloxicam with various solubilizing agents. It is filed as physicochemical. The conditions noted are these: storage with PVA, Polysorbate 80 or glycerin.
The nature of data set [4]: pH dependence of dissolution/precipitation of 1% meloxicam. The data set is classed as physicochemical. The conditions noted are these: 95:5 water:propylene glycol, concentrated NaOH solution (10 M) added.
A short description of data set [5]: Canine anesthetized meloxicam absorption study. The conditions noted are these: TMOM.
Protocol: A canine anesthetized absorption study was also carried out. The subjects were anesthetized dogs using minimal pre-anesthetics (isoflurane via an endotracheal tube). The possibility of run off into and absorption by the gastrointestinal tract was prevented by obstructing the esophagus with a Foley catheter. […] Blood samples were taken 0, 5, 30 min, and 1, 2, 4, 8, 12, 24, and 72 hours post-dose. Jugular and cephalic vein samples were obtained 5, 30 min and 4, 8 hours post-dose.
A short description of data set [6]: Canine meloxicam absorption study (TMOM vs oral suspension). Conditions: ~0.2 mg/kg, dogs.
Protocol: The average oral suspension dose was 0.20 mg/kg (range 0.19-0.21 mg/kg), and the average dose using transmucosal oral administration was 0.20 mg/kg (range 0.19-0.21 mg/kg). Blood samples were obtained at 0, 5, 30 minutes and 1, 2, 4, 8, 12, 24, 48, and 72 hours post dose.
The AUC represents the area under the curve or the total amount of drug exposure to the animal following administration by the two different dosage forms. […] Absorption half-life is the amount of time it takes for half of what is left at the site of absorption to be absorbed.
A short description of data set [7]: Canine carprofen study (caplet, TMOM, subcutaneous injection). The data set is classed as in vivo, dog. The conditions noted are these: dogs.
Data set [8] in a line: Canine anesthetized carprofen absorption study. It is filed as in vivo, dog. Conditions: TMOM. As for the experimental part: A canine anesthetized absorption study was also carried out. […] The carprofen was administered using a transmucosal oral mist. Blood samples were taken 0, 5, 15, 30 min, and 1, 2, 4, 8, 12, and 24 hours post-dose. Jugular and cephalic vein samples were obtained 5, 15 and 30 and 1 and 2 hours post-dose. The target dosage was 2.2 mg/kg (50 mg/mL Rimadyl® injectable solution, 300 μL (15 mg), target dose range 1.9-2.5 mg/kg).

Data set [9] in a line: Canine anesthetized clemastine absorption study. The data set is classed as in vivo, dog. The conditions noted are these: anesthetized canine subjects, TMOM. Here is the method:
A canine anesthetized absorption study was also carried out.

The conditions of data set [10]: equine, oral gavage; Törneke et al. 2003; cited from earlier work.
Data set [11] in a line: in vivo. Conditions: dog, plasma, po, 1 mg/kg.
Protocol: (§2) The target dose for canine subjects was 1 mg/kg (both transmucosal oral administration and tablets). The average tablet dose was 0.96 mg/kg (0.95-0.97 mg/kg) and the average transmucosal oral administration dose was 0.97 mg/kg (0.91-1.06 mg/kg) administered in a spray volume of 400-650 μL using 4-7 pumps of the spray device. The target dose for feline subjects was also 1 mg/kg for both transmucosal oral administration and tablets. The average tablet dose of 1.07 mg/kg (0.89-1.22 mg/kg) and the average transmucosal oral administration dose was 0.95 mg/kg (0.83-1.14 mg/kg) administered in a spray volume of 100-200 μL using 1-2 pumps of the spray device. The target dose for equine subjects was 0.1 mg/kg for both transmucosal oral administration and tablets. The average tablet dose (via stomach tube) was 0.1 mg/kg (0.10-0.11 mg/kg) and the average transmucosal oral administration dose was 0.1 mg/kg (0.09-0.11 mg/kg) administered in a spray volume of 1.4-1.7 mL using 14-17 pumps of the spray device.
(§3) Blood samples were taken 5, 15, 30 min, 1, 2, 4, 7, 12, 24 hours post dose.
Data set [12] in a line: in vivo. Conditions: horse, plasma, po, 0.1 mg/kg.
Protocol: as §2, §3
Data set [13] can be described thus: Clemastine two-way crossover, tablets vs TMOM, canine.
Protocol: as §2, §3
The nature of data set [14]: Clemastine two-way crossover, tablets (stomach tube) vs TMOM, equine.
Protocol: as §2, §3
Data set [15] is described as follows: Enrofloxacin feline study, tablets vs TMOM. It is filed as in vivo, cat. Conditions: cats. As for the experimental part: A six cat, two-way crossover study was carried out to compare conventional oral administration (i.e., tablets, Baytril®) with transmucosal oral administration (Baytril® 100; 100 mg of enrofloxacin, L-arginine base 200 mg, n-butyl alcohol 30 mg, benzyl alcohol (as a preservative) 20 mg, and water for injection, q.s.). The target was 5 mg/kg enrofloxacin. The average tablet dose was 4.7 mg/kg and the average TMOM™ dose was 4.9 mg/kg (250-300 μL).

For data set [16] the following is noted: dogs. As for the experimental part: A six dog, two-way crossover experiment was carried out with a target dose of 6.0 mg/kg propofol administered by IV, and 30.0 mg/kg of propofol using transmucosal oral administration.
Data set [17] can be described thus: Zolpidem two-way crossover, tablet vs TMOM, canine. Conditions: for absorption time and absorption half-life, TMOM vs tablet / peak plasma concentration (Cmax), TMOM vs tablet: dogs. Here is the method: (§1) A six animal (canine and feline) two-way crossover experiment was carried out in which the subjects were administered a zolpidem tablet or a transmucosal oral mist of a 2.5% zolpidem tartrate solution.
Canine subjects were administered tablets (average dose 0.55 mg/kg (0.40-0.63 mg/kg)) or a transmucosal oral mist (average dose 0.55 mg/kg (0.42-0.62 mg/kg)). The transmucosal oral mist administration used a spray volume of 200-250 μL in 2-3 pumps of the spray dispenser. By comparison, the average human dose is 0.08-0.17 mg/kg

Data set [18] in a line: Zolpidem two-way crossover, tablet vs TMOM, feline. As for the experimental part:
as §1
Feline subjects were administered tablets (average dose 0.74 mg/kg) or a transmucosal oral mist (average dose 0.72 mg/kg). The transmucosal oral mist used a spray volume of 100 μL in 1 pump of the spray dispenser.

Data set [19] in a line: Milbemycin canine study, tablets vs TMOM. The data set is classed as in vivo, dog. The conditions noted are these: dogs. As for the experimental part:
A twelve dog random parallel design was carried out to compare conventional oral administration (i.e., tablets) of Milbemycin with transmucosal oral administration. The tablets used were Interceptor® Flavor Tab®, 5.75 mg and 11.5 mg, providing an average dose of 0.78 mg/kg (0.50-0.99 mg/kg).

The mark [20] stands for this setting: ~0.5 mg/kg, listed as zolpidem tartrate.

Like-named read-outs stand apart in the source and are kept apart here. Where only a bound is given, the exact number is not on record here.

Broadly, the Tmax is the time at which the peak concentration occurs. What is called half-life is the time in which the quantity being followed falls by half. A low value points to fast loss.

Take `C[C@H]1O[C@@H](O[C@H]2[C@@H](O)C[C@H](O[C@H]3[C@@H](O)C[C@H](O[C@H]4CC[C@@]5(C)[C@H](CC[C@@H]6[C@@H]5C[C@@H](O)[C@]5(C)[C@@H](C7=CC(=O)OC7)CC[C@]65O)C4)O[C@@H]3C)O[C@@H]2C)C[C@H](O)[C@@H]1O` [Digoxin, (3β,5β,12β)-3-[(O-2,6-dideoxy-β-D-ribo-hexopyranosyl-(1,4)-O-2,6-dideoxy-β-D-ribo-hexopyranosyl-(1,4)-O-2,6-dideoxy-β-D-ribo-hexopyranosyl)oxy]-12,14-dihydroxy-card-20(22)-enolide]: the solubility entry in [1] (in chloroform) is on record as “slightly soluble”; in data set [1] (in diluted (e.g., about 50%) alcohol), “slightly soluble”; in data set [1] (in ether), “practically insoluble”; in [1] (in pyridine) it was “freely soluble”; in [1] (in water), “practically insoluble”.

Regarding `Cc1cnc(NC(=O)C2=C(O)c3ccccc3S(=O)(=O)N2C)s1` [Meloxicam, 4-hydroxy-2-methyl-N-(5-methyl-2-thiazolyl)-2H-1,2-benzothiazine-3-carboxamide-1,1-dioxide], the “pH needed for meloxicam to remain in solution” value in data set [2] was “greater than 8.0”. Besides, the “pH value of solution causing meloxicam precipitation” value in data set [2] is on record as “less than 8”. Further, the “apparent pH at which a precipitate formed” value in data set [2] (1% meloxicam, 85:15 water:ethanol, initial apparent pH of 12 reduced by HCl) was found to be 7.7. The “pH at which meloxicam precipitation was observed” value in data set [2] (1% meloxicam, 100% water, titrated with HCl (aq)) was determined as 7.2. For the same compound, the “dissolution of 1% meloxicam” value in [2] (80% water/15% EtOH/5% Poloxamer 188, 1 M NaOH added to pH of 10) was “dissolve”; in data set [2] (80% water/15% EtOH/5% Poloxamer 188, acidified to pH of 7 with 0.2 M HCl), “precipitate”; in data set [2] (80% water/15% EtOH/5% Poloxamer 188, additional 1 M NaOH, pH to 8), “redissolved and remained in solution”; in data set [2] (80% water/15% EtOH/5% Poloxamer 188, pH of approximately 5.8), “did not dissolve completely”; in data set [2] (100% water, pH adjusted to 10.1), “redissolved”; in [2] (100% water, pH then reduced to approximately 7.8) it was “no further precipitation”. Moreover, in data set [4], the “dissolution of 1% meloxicam” value was “did not dissolve”. Besides, the “physical stability of the meloxicam solution” value in data set [3] is “greater with PVA than Polysorbate 80 or glycerin”. The “jugular plasma levels as compared to cephalic (systemic) levels” value in [5] (anesthetized dogs, at 30 min and 4 h) is given as “higher”. For the same compound, in data set [5] (dogs), the “part of the dose in an awake animal delivered transmucosally” value was ≤ 90%. For the same compound, the “bioequivalence to meloxicam administered via an oral suspension” value in data set [6] was “bioequivalent”.

Consider `CC(C(=O)O)c1ccc2c(c1)[nH]c1ccc(Cl)cc12` (stereo not shown) [carprofen], for which, in data set [7], the “Cmax and AUC values, caplet vs transmucosal oral administration” value is on record as “very similar”; the “Cmax of the subcutaneous injection relative to caplet or transmucosal oral administration” value is reported as “approximately half”; the “Tmax, transmucosal oral administration vs caplet” value is “shorter”; the “absorption and Tmax, subcutaneous injection vs caplet or TMOM” value was “slower absorption and greater time to peak concentrations”. Besides, in data set [7], the “absorption, transmucosal oral administration vs caplet” value was “slightly faster”. Also, in [7] (transmucosal oral administration), the lag time result is “no lag time”. Also, in data set [7] (caplet, TMOM, subcutaneous injection), the “AUC values of the three administration methods” value is listed as “all similar”. For the same compound, the “plasma jugular levels as compared to cephalic levels” value in data set [8] (anesthetized dogs, at 30 min) is listed as “higher”. For the same compound, the “AUC for anesthetized animals relative to awake animals” value in data set [8] (dogs) is on record as “approximately 25%”.

In the case of `CN1CCC[C@@H]1CCO[C@](C)(c1ccccc1)c1ccc(Cl)cc1` [clemastine], the “absorption via the transmucosal route” value in data set [9] is “readily absorbed”. Moreover, the absorption entry (cats) was “well absorbed”. In addition, the salivation entry (feline subjects) is listed as “mild to severe” and the salivation entry in data set [13] (canine subjects) is reported as “none to moderate”. The “AUC values, transmucosal oral vs tablet” value (feline, ~1 mg/kg, appears to be an artifact of salivation) is on record as “Lower”. Further, the t1/2 in data set [10] is 2.9 h. In addition, in “in vivo [11]”, the time to peak (Tmax) was ~0.167 h. The half-life in the data set “in vivo [12]” was 2.8 h. For the same compound, the “peak (Cmax), transmucosal oral vs tablet” value in data set [13] (canine, ~1 mg/kg) is on record as “much higher”. Moreover, in [13] (dogs, 1 mg/kg), the “AUC and Cmax, TMOM route vs oral tablet route” value is “about an order of magnitude greater”. For the same compound, in data set [14] (0.1 mg/kg), the “Tmax, transmucosal oral vs oral gavage of tablets” value was “shorter”. The “bioavailability, transmucosal oral vs oral gavage of tablets” value in data set [14] (0.1 mg/kg) is recorded as “significantly better”. In [14] (oral gavage), the “bioavailability of clemastine in tablet form” value is “extremely poor”.

On to `CCN1CCN(c2cc3c(cc2F)c(=O)c(C(=O)O)cn3C2CC2)CC1` [enrofloxacin], for which, in data set [15] (TMOM), the “lag time in uptake” value is recorded as “no lag time”. The “jugular plasma concentrations as compared to cephalic concentrations” value in data set [15] (TMOM, 5 min time point) was “Consistently and significantly higher”. In addition, the “AUC, Cmax, Tmax or t1/2 values, transmucosal vs conventional administration” value in data set [15] (~5 mg/kg) is recorded as “essentially no difference”.

As to `CC(C)c1cccc(C(C)C)c1O` [propofol], the “uptake using transmucosal oral administration” value in data set [16] is reported as “rapid”. The “Cmax value compared to IV administration” value in data set [16] (TMOM ~30 mg/kg vs IV ~6 mg/kg) is “somewhat lower”. Moreover, the “part of transmucosally administered dose absorbed” value in data set [16] (TMOM ~30 mg/kg, by 2 hours) was “Greater than 90%”.

With `Cc1ccc(-c2nc3ccc(C)cn3c2CC(=O)N(C)C)cc1` [zolpidem, N,N-6-trimethyl-2-p-tolyl-imidazo[1,2-a]pyridine-3-acetamide], the “vomiting after TMOM administration” value in [17] (canine, 12 minutes after administration) is “One of the canine subjects vomited”. For the same compound, the “time within which substantially all of the dose was absorbed” value in [17] (canine, TMOM) is ≤ 12 min. The “AUC, TMOM vs tablet” value in data set [17] (canine, ~0.5 mg/kg) was “greater”; in [18] (feline, salivation can lead to reduced absorption) it was “lower”. Moreover, the “Tmax, TMOM vs tablet” value in [17] (canine, ~0.5 mg/kg) is “shorter”. For the same compound, the “absorption time and absorption half-life, TMOM vs tablet” value is listed as “shorter” in data set [17] (~0.5 mg/kg) and “significantly lower (shorter)” in data set [17] (setting [20]). In addition, the “peak plasma concentration (Cmax), TMOM vs tablet” value in data set [17] (~0.5 mg/kg) was “greater”; in data set [17] (setting [20]), “higher”. Besides, the “absorption time, peak plasma concentration, and total absorption, TMOM vs tablet” value in [18] (cats, within experimental error) is recorded as “comparable”.

Regarding Milbemycin, in data set [19], the “variability of plasma concentrations, transmucosal vs tablet” value is reported as “less variable”. Further, in data set [19] (0.28 mg/kg), the “uptake by transmucosal oral administration” value is given as “very good”. Also, the “bioavailability, transmucosal oral administration vs conventional tablet” value in data set [19] (corrected for dosage) is recorded as “similar”.

These data come from patent US8940271B2, “Transmucosal administration of drug compositions for treating and preventing disorders in animals” (Abbott Laboratories, priority 2005, dated 2015).
